One experiment addresses T1, human V2 receptor (Homo sapiens, UniProt P30518).
T1 construct: expressed in transfected cells; host or cells: CHO K1 (ATCC) line expressing firefly luciferase under a CRE-responsive promoter
In words: Cellular in vitro assay for vasopressin receptor activity, V2 cell line (CRE-luciferase). Type of experiment: cell-based. The following applies: CHO cell line transfected with human V2 receptor; agonist [Arg8]-vasopressin at EC50 concentration, 3 hours; read-out: IC50hV2. The procedure: (§1) B-1. Cellular In Vitro Assay for Determining Vasopressin Receptor Activity
(§2) The identification of agonists and antagonists of the V1a and V2 vasopressin receptors from humans, rats and dogs as well as the quantification of the activity of the compounds of the invention is carried out using recombinant cell lines. These cell lines originally derive from a hamster's ovary epithelial cell (Chinese Hamster Ovary, CHO K1, ATCC: American Type Culture Collection, Manassas, Va. 20108, USA). The test cell lines constitutively express the human, rat or dog V1a or V2 receptors. In case of the Gαq-coupled V1a receptors, cells are also stably transfected with a modified form of the calcium-sensitive photoproteins aequorin (human and rat V1a) or obelin (dog V1a), which, after reconstitution with the cofactor coelenterazine, emit light when there are increases in free calcium concentrations [Rizzuto R, Simpson A W, Brini M, Pozzan T, Nature 358, 325-327 (1992); Illarionov B A, Bondar V S, Illarionova V A, Vysotski E S, Gene 153 (2), 273-274 (1995)]. The resulting vasopressin receptor cells react to stimulation of the recombinantly expressed V1a receptors by intracellular release of calcium ions, which can be quantified by the resulting photoprotein luminescence. The Gs-coupled V2 receptors are stably transfected into cell lines expressing the gene for firefly luciferase under control of a CRE-responsible promoter. Activation of V2 receptors induces the activation of the CRE-responsive promoter via cAMP increase, thereby inducing the expression of firefly luciferase. The light emitted by photoproteins of V1a cell lines as well as the light emitted by firefly luciferase of V2 cell lines corresponds to the activation or inhibition of the respective vasopressin receptor. The bioluminescence of the cell lines is detected using a suitable luminometer [Milligan G, Marshall F, Rees S, Trends in Pharmacological Sciences 17, 235-237 (1996)].
Vasopressin V2 Receptor Cell Lines:
On the day before the assay, the cells are plated out in culture medium (DMEM/F12, 2% FCS, 2 mM glutamine, 10 mM HEPES) in 384-well microtiter plates and kept in a cell incubator (96% humidity, 5% v/v CO2, 37° C.). On the day of the assay, test compounds in various concentrations and the agonist [Arg^8]-vasopressin at EC50 concentration are added together to the wells, and plates are incubated for 3 hours in a cell incubator. Upon addition of the cell lysis reagent Triton™ and the substrate luciferin, luminescence of firefly luciferase is measured in a luminometer.
(§3) Table 1A below lists individual IC50 values for the compounds of the invention (including racemic mixtures as well as separated enantiomers) that were obtained from cell lines transfected with the human V1a or V2 receptor: […]

Another experiment has as its target T2, human V1a receptor (Homo sapiens, UniProt P37288).
T2 construct: expressed in transfected cells; host or cells: CHO K1 (ATCC), also stably transfected with a modified aequorin
In words: Cellular in vitro assay for vasopressin receptor activity, V1a cell line (aequorin luminescence). The format is cell-based. The following applies: for IC50: CHO cell line transfected with human V1a receptor, agonist [Arg8]-vasopressin at EC50 concentration, read-out: IC50hV1a; for ratio IC50 hV2/hV1a: ratio of the IC50 on human V2 to the IC50 on human V1a. As to the method:
as §1, §2
Vasopressin V1a Receptor Cell Lines:
On the day before the assay, the cells are plated out in culture medium (DMEM/F12, 2% FCS, 2 mM glutamine, 10 mM HEPES, 5 μg/ml coelenterazine) in 384-well microtiter plates and kept in a cell incubator (96% humidity, 5% v/v CO2, 37° C.). On the day of the assay, test compounds in various concentrations are placed for 10 minutes in the wells of the microtiter plate before the agonist [Arg^8]-vasopressin at EC50 concentration is added. The resulting light signal is measured immediately in a luminometer.
as §3

T1 sequence (P30518 whole entry): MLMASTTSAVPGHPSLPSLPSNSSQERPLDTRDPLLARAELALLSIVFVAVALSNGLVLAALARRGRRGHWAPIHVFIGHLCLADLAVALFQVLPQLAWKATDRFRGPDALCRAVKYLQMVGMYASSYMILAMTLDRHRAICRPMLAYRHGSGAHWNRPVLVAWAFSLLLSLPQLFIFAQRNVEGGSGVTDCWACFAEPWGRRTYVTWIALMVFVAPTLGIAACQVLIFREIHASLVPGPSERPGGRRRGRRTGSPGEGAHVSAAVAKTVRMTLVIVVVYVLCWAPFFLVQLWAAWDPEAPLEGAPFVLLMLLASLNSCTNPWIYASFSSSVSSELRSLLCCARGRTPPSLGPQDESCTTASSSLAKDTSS
T2 sequence (P37288 whole entry): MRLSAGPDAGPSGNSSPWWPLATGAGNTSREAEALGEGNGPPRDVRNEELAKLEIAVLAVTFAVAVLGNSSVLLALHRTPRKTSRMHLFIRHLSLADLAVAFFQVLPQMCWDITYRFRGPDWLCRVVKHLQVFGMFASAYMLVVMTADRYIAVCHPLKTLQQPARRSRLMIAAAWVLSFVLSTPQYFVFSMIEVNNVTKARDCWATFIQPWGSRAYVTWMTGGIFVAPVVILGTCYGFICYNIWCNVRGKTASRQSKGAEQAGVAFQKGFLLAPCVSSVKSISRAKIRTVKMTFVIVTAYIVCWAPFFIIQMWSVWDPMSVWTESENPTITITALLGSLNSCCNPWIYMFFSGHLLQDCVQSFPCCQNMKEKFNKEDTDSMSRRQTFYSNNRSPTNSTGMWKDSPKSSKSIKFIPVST

For `CC(F)c1nc(Cn2nc(-c3ccc(Cl)cc3)n(C[C@H](O)C(F)(F)F)c2=O)nn1-c1cnccc1Cl` (single isomer, unassigned) [Example 5], the IC50 is 74.8 nM on human V2 receptor and 6.95 nM on human V1a receptor. On human V1a receptor, the “ratio IC50 hV2/hV1a” value was 10.8.

For `CC(F)c1nc(Cn2nc(-c3ccc(Cl)cc3)n(C[C@H](O)C(F)(F)F)c2=O)nn1-c1cnccc1Cl` (single isomer, unassigned) [Example 6], at human V2 receptor, the IC50 was 2.37 nM. Further, at human V1a receptor, the IC50 is 0.48 nM and the “ratio IC50 hV2/hV1a” value came to 5.0.

Regarding `CC(F)c1nc(Cn2nc(-c3ccc(Cl)cc3)n(C[C@H](O)C(F)(F)F)c2=O)nn1-c1cnccc1C(F)(F)F` (single isomer, unassigned) [Example 8], the IC50 on human V2 receptor is 19.8 nM. Besides, at human V1a receptor, the IC50 is 1.25 nM and the “ratio IC50 hV2/hV1a” value worked out at 15.8.

For the molecule `CC(F)c1nc(Cn2nc(-c3ccc(Cl)cc3)n(C[C@H](O)C(F)(F)F)c2=O)nn1-c1cnccc1C(F)(F)F` (single isomer, unassigned) [Example 9], the IC50 on human V2 receptor stood at 7.05 nM. In addition, at human V1a receptor, the IC50 was determined as 1 nM and the “ratio IC50 hV2/hV1a” value is listed as 7.1.

Turning to `CC(F)c1nc(Cn2nc(-c3ccc(Cl)cc3)n(C[C@H](O)C(F)(F)F)c2=O)nn1-c1ncccc1C(F)(F)F` (single isomer, unassigned) [Example 11], the IC50 on human V2 receptor came to 73.8 nM. On human V1a receptor, the IC50 amounted to 13.5 nM and the “ratio IC50 hV2/hV1a” value was determined as 5.5.

In the case of `CC(F)c1nc(Cn2nc(-c3ccc(Cl)cc3)n(C[C@H](O)C(F)(F)F)c2=O)nn1-c1ncccc1C(F)(F)F` (single isomer, unassigned) [Example 12], the IC50 at human V2 receptor is 22.5 nM. On human V1a receptor, the IC50 was found to be 3.8 nM and the “ratio IC50 hV2/hV1a” value came to 5.9.

On to `CC(F)c1nc(Cn2nc(-c3ccc(Cl)cc3)n(C[C@H](O)C(F)(F)F)c2=O)nn1-c1cccc(F)c1` (single isomer, unassigned) [Example 14], for which the IC50 is 1.73 nM at human V2 receptor and 9.7 nM at human V1a receptor. In addition, the “ratio IC50 hV2/hV1a” value on human V1a receptor came out at 0.2.

`CC(F)c1nc(Cn2nc(-c3ccc(Cl)cc3)n(C[C@H](O)C(F)(F)F)c2=O)nn1-c1cccc(F)c1` (single isomer, unassigned) [Example 15]: the IC50 at human V2 receptor was 7.85 nM. Moreover, at human V1a receptor, the IC50 is 12.5 nM and the “ratio IC50 hV2/hV1a” value was determined as 0.6.

As for `CC(F)c1nc(Cn2nc(-c3ccc(Cl)cc3)n(C[C@H](O)C(F)(F)F)c2=O)nn1-c1cccc(Cl)c1` (single isomer, unassigned) [Example 17], the values for the IC50 on human V2 receptor and at human V1a receptor were 0.25 nM and 9.25 nM, respectively. Further, the “ratio IC50 hV2/hV1a” value on human V1a receptor stood at 0.0.

For `CC(F)c1nc(Cn2nc(-c3ccc(Cl)cc3)n(C[C@H](O)C(F)(F)F)c2=O)nn1-c1cccc(Cl)c1` (single isomer, unassigned) [Example 18], the IC50 at human V2 receptor came to 3.85 nM. For the same molecule, on human V1a receptor, the IC50 was found to be 60 nM and the “ratio IC50 hV2/hV1a” value came out at 0.1.

For the molecule `CC(F)c1nc(Cn2nc(-c3ccc(Cl)cc3)n(C[C@H](O)C(F)(F)F)c2=O)nn1-c1ncccc1Cl` (single isomer, unassigned) [Example 20], the IC50 amounted to 5.95 nM on human V2 receptor and 1.35 nM at human V1a receptor. Besides, on human V1a receptor, the “ratio IC50 hV2/hV1a” value amounted to 4.4.

Take `CC(F)c1nc(Cn2nc(-c3ccc(Cl)cc3)n(C[C@H](O)C(F)(F)F)c2=O)nn1-c1ncccc1Cl` (single isomer, unassigned) [Example 21]: at human V2 receptor, the IC50 is 12.5 nM. Also, at human V1a receptor, the IC50 came to 1.55 nM and the “ratio IC50 hV2/hV1a” value is on record as 8.1.

For `CC(F)c1nc(Cn2nc(-c3ccc(Cl)cc3)n(C[C@H](O)C(F)(F)F)c2=O)nn1-c1ccccc1C(F)(F)F` (single isomer, unassigned) [Example 23], the IC50 on human V2 receptor was 33 nM. In addition, at human V1a receptor, the IC50 came out at 3.75 nM and the “ratio IC50 hV2/hV1a” value stood at 8.8.

As to `CC(F)c1nc(Cn2nc(-c3ccc(Cl)cc3)n(C[C@H](O)C(F)(F)F)c2=O)nn1-c1ccccc1C(F)(F)F` (single isomer, unassigned) [Example 24], the IC50 at human V2 receptor came to 4.65 nM. Also, on human V1a receptor, the IC50 is 1.1 nM and the “ratio IC50 hV2/hV1a” value was 4.2.

As to `CC(F)c1nc(Cn2nc(-c3ccc(Cl)cc3)n(C[C@H](O)C(F)(F)F)c2=O)nn1-c1ccccc1OC(F)(F)F` (single isomer, unassigned) [Example 26], the IC50 on human V2 receptor was determined as 17.5 nM. Besides, on human V1a receptor, the IC50 came to 3 nM and the “ratio IC50 hV2/hV1a” value is 5.8.

In the case of `CC(F)c1nc(Cn2nc(-c3ccc(Cl)cc3)n(C[C@H](O)C(F)(F)F)c2=O)nn1-c1ccccc1OC(F)(F)F` (single isomer, unassigned) [Example 27], the IC50 on human V2 receptor amounted to 9.8 nM. On human V1a receptor, the IC50 amounted to 1.75 nM and the “ratio IC50 hV2/hV1a” value was determined as 5.6.

For the molecule `CCc1ccccc1-n1nc(Cn2nc(-c3ccc(Cl)cc3)n(C[C@H](O)C(F)(F)F)c2=O)nc1C(C)F` (single isomer, unassigned) [Example 29], the IC50 on human V2 receptor amounted to 0.37 nM; on human V1a receptor, 0.91 nM. Further, the “ratio IC50 hV2/hV1a” value at human V1a receptor is reported as 0.4.

On to `CCc1ccccc1-n1nc(Cn2nc(-c3ccc(Cl)cc3)n(C[C@H](O)C(F)(F)F)c2=O)nc1C(C)F` (single isomer, unassigned) [Example 30], for which the IC50 at human V2 receptor was found to be 1.9 nM. Besides, at human V1a receptor, the IC50 turned out to be 1.85 nM and the “ratio IC50 hV2/hV1a” value was 1.0.

For the molecule `CC(F)c1nc(Cn2nc(-c3ccc(Cl)cc3)n(C[C@H](O)C(F)(F)F)c2=O)nn1-c1ccccc1OC(F)F` (single isomer, unassigned) [Example 32], the IC50 at human V2 receptor was determined as 8.9 nM. In addition, at human V1a receptor, the IC50 was 2.4 nM and the “ratio IC50 hV2/hV1a” value was determined as 3.7.

For `CC(F)c1nc(Cn2nc(-c3ccc(Cl)cc3)n(C[C@H](O)C(F)(F)F)c2=O)nn1-c1ccccc1OC(F)F` (single isomer, unassigned) [Example 33], the IC50 at human V2 receptor was found to be 1.8 nM. Moreover, at human V1a receptor, the IC50 was found to be 2.15 nM and the “ratio IC50 hV2/hV1a” value stood at 0.8.

`Cc1ccccc1-n1nc(Cn2nc(-c3ccc(Cl)cc3)n(C[C@H](O)C(F)(F)F)c2=O)nc1C(C)F` (single isomer, unassigned) [Example 35]: the IC50 at human V2 receptor worked out at 0.17 nM. Besides, on human V1a receptor, the IC50 is 0.36 nM and the “ratio IC50 hV2/hV1a” value worked out at 0.5.

In the case of `Cc1ccccc1-n1nc(Cn2nc(-c3ccc(Cl)cc3)n(C[C@H](O)C(F)(F)F)c2=O)nc1C(C)F` (single isomer, unassigned) [Example 36], the IC50 at human V2 receptor stood at 0.98 nM. Also, at human V1a receptor, the IC50 turned out to be 0.65 nM and the “ratio IC50 hV2/hV1a” value is 1.5.

Turning to `CC(F)c1nc(Cn2nc(-c3ccc(Cl)cc3)n(C[C@H](O)C(F)(F)F)c2=O)nn1-c1ccccc1C#N` (single isomer, unassigned) [Example 39], the IC50 on human V2 receptor is 261 nM. Besides, on human V1a receptor, the IC50 is 22.2 nM and the “ratio IC50 hV2/hV1a” value was 11.7.

On to `CC(F)c1nc(Cn2nc(-c3ccc(Cl)cc3)n(C[C@H](O)C(F)(F)F)c2=O)nn1-c1ccccc1C#N` (single isomer, unassigned) [Example 40], for which the IC50 at human V2 receptor came to 420 nM. Besides, at human V1a receptor, the IC50 is 28.5 nM and the “ratio IC50 hV2/hV1a” value was found to be 14.7.

In the case of `CC(F)c1nc(Cn2nc(-c3ccc(Cl)cc3)n(C[C@H](O)C(F)(F)F)c2=O)nn1-c1cnccc1C(F)(F)F` (stereo partly drawn) [Example 7, 5-(4-Chlorophenyl)-2-({5-[1-fluoroethyl]-1-[4-(trifluoromethyl)pyridin-3-yl]-1H-1,2,4-triazol-3-yl}methyl)-4-[(2S)-3,3,3-trifluoro-2-hydroxypropyl]-2,4-dihydro-3H-1,2,4-triazol-3-one], the IC50 on human V2 receptor amounted to 12.5 nM. At human V1a receptor, the IC50 came out at 1.13 nM and the “ratio IC50 hV2/hV1a” value is 11.1.
